# System: Acinetobacter baumannii
# Assay: Antibacterial activity against Acinetobacter baumannii GIL1 isolate harboring intrinsic blaOXA-51/69-like gene by Etest method
# Format: functional
row,Molecule,MIC [µg/mL]
1,O=C(O)c1cn(C2CC2)c2cc(N3CCNCC3)c(F)cc2c1=O [CIPROFLOXACIN],> 32
2,CO[C@H]1/C=C/O[C@@]2(C)Oc3c(C)c(O)c4c(O)c(c(/C=N/N5CCN(C)CC5)c(O)c4c3C2=O)NC(=O)/C(C)=C\C=C\[C@H](C)[C@H](O)[C@@H](C)[C@@H](O)[C@@H](C)[C@H](OC(C)=O)[C@@H]1C [RIFAMPIN],3
3,C[C@@H](O)[C@H]1C(=O)N2C(C(=O)O)=C(SCCNC=N)C[C@H]12 [IMIPENEM ANHYDROUS],> 32
4,CN(C)c1cc(NC(=O)CNC(C)(C)C)c(O)c2c1C[C@H]1C[C@H]3[C@H](N(C)C)C(O)=C(C(N)=O)C(=O)[C@@]3(O)C(O)=C1C2=O [TIGECYCLINE],6
5,COLISTIN,0.5
6,C[C@@H](O)[C@H]1C(=O)N2C(C(=O)O)=C(S[C@@H]3CN[C@H](C(=O)N(C)C)C3)[C@H](C)[C@H]12 [MEROPENEM],> 32
7,CC1(C)[C@H](C(=O)O)N2C(=O)C[C@H]2S1(=O)=O [SULBACTAM],48
8,NCC[C@H](O)C(=O)N[C@@H]1C[C@H](N)[C@@H](O[C@H]2O[C@H](CN)[C@@H](O)[C@H](O)[C@H]2O)[C@H](O)[C@H]1O[C@H]1O[C@H](CO)[C@@H](O)[C@H](N)[C@H]1O [AMIKACIN],> 256

# From ChEMBL document CHEMBL1275545, “Carbapenem-resistant Acinetobacter baumannii isolates expressing the blaOXA-23 gene associated with ISAba4 in Belgium” (2008)
